# According to the NIST ThermoML archive (doi:10.1016/j.jct.2013.10.013):
# ± gives the expanded uncertainty stated by the source.
# Assay: xn = mol fraction of the nth substance listed
# Conditions: 101 kPa, Liquid, Vibrating tube method
structure (smiles),measurement,setting,value
CC(C)COCCO [2-(2-methylpropoxy)ethanol] + O,mass density,"283.15 K, x1 = 0.000617",999.515 ± 0.2 kg/m3
same,mass density,"283.15 K, x1 = 0.001164",999.412 ± 0.2 kg/m3
same,mass density,"283.15 K, x1 = 0.001812",999.296 ± 0.2 kg/m3
same,mass density,"283.15 K, x1 = 0.00198",999.307 ± 0.2 kg/m3
same,mass density,"283.15 K, x1 = 0.003969",999.013 ± 0.2 kg/m3
same,mass density,"283.15 K, x1 = 0.006759",998.702 ± 0.2 kg/m3
same,mass density,"283.15 K, x1 = 0.009969",998.438 ± 0.2 kg/m3
same,mass density,"283.15 K, x1 = 0.01319",998.199 ± 0.2 kg/m3
same,mass density,"288.15 K, x1 = 0.000617",998.897 ± 0.2 kg/m3
same,mass density,"288.15 K, x1 = 0.001164",998.784 ± 0.2 kg/m3
same,mass density,"288.15 K, x1 = 0.001812",998.655 ± 0.2 kg/m3
same,mass density,"288.15 K, x1 = 0.00198",998.645 ± 0.2 kg/m3
same,mass density,"288.15 K, x1 = 0.003969",998.299 ± 0.2 kg/m3
same,mass density,"288.15 K, x1 = 0.006759",997.897 ± 0.2 kg/m3
same,mass density,"288.15 K, x1 = 0.009969",997.523 ± 0.2 kg/m3
same,mass density,"288.15 K, x1 = 0.01319",997.151 ± 0.2 kg/m3
same,mass density,"293.15 K, x1 = 0.000617",998.017 ± 0.2 kg/m3
same,mass density,"293.15 K, x1 = 0.001164",997.888 ± 0.2 kg/m3
same,mass density,"293.15 K, x1 = 0.001812",997.743 ± 0.2 kg/m3
same,mass density,"293.15 K, x1 = 0.00198",997.724 ± 0.2 kg/m3
same,mass density,"293.15 K, x1 = 0.003969",997.322 ± 0.2 kg/m3
same,mass density,"293.15 K, x1 = 0.006759",996.836 ± 0.2 kg/m3
same,mass density,"293.15 K, x1 = 0.009969",996.347 ± 0.2 kg/m3
same,mass density,"293.15 K, x1 = 0.01319",995.851 ± 0.2 kg/m3
same,mass density,"298.15 K, x1 = 0.000617",996.846 ± 0.2 kg/m3
same,mass density,"298.15 K, x1 = 0.001164",996.707 ± 0.2 kg/m3
same,mass density,"298.15 K, x1 = 0.001812",996.548 ± 0.2 kg/m3
same,mass density,"298.15 K, x1 = 0.00198",996.506 ± 0.2 kg/m3
same,mass density,"298.15 K, x1 = 0.003969",996.06 ± 0.2 kg/m3
same,mass density,"298.15 K, x1 = 0.006759",995.497 ± 0.2 kg/m3
same,mass density,"298.15 K, x1 = 0.009969",994.904 ± 0.2 kg/m3
same,mass density,"298.15 K, x1 = 0.01319",994.282 ± 0.2 kg/m3
same,mass density,"303.15 K, x1 = 0.000617",995.459 ± 0.2 kg/m3
same,mass density,"303.15 K, x1 = 0.001164",995.292 ± 0.2 kg/m3
same,mass density,"303.15 K, x1 = 0.001812",995.136 ± 0.2 kg/m3
same,mass density,"303.15 K, x1 = 0.00198",995.092 ± 0.2 kg/m3
same,mass density,"303.15 K, x1 = 0.003969",994.592 ± 0.2 kg/m3
same,mass density,"303.15 K, x1 = 0.006759",993.958 ± 0.2 kg/m3
same,mass density,"303.15 K, x1 = 0.009969",993.254 ± 0.2 kg/m3
same,mass density,"303.15 K, x1 = 0.01319",992.505 ± 0.2 kg/m3
CCCCOCCO [2-butoxyethan-1-ol] + O,mass density,"283.15 K, x1 = 0.000906",999.515 ± 0.2 kg/m3
same,mass density,"283.15 K, x1 = 0.001283",999.44 ± 0.2 kg/m3
same,mass density,"283.15 K, x1 = 0.001685",999.376 ± 0.2 kg/m3
same,mass density,"283.15 K, x1 = 0.001942",999.379 ± 0.2 kg/m3
same,mass density,"283.15 K, x1 = 0.003834",999.137 ± 0.2 kg/m3
same,mass density,"283.15 K, x1 = 0.006957",998.855 ± 0.2 kg/m3
same,mass density,"283.15 K, x1 = 0.009993",998.677 ± 0.2 kg/m3
same,mass density,"283.15 K, x1 = 0.01324",998.516 ± 0.2 kg/m3
same,mass density,"288.15 K, x1 = 0.000906",998.873 ± 0.2 kg/m3
same,mass density,"288.15 K, x1 = 0.001283",998.804 ± 0.2 kg/m3
same,mass density,"288.15 K, x1 = 0.001685",998.733 ± 0.2 kg/m3
same,mass density,"288.15 K, x1 = 0.001942",998.742 ± 0.2 kg/m3
same,mass density,"288.15 K, x1 = 0.003834",998.449 ± 0.2 kg/m3
same,mass density,"288.15 K, x1 = 0.006957",998.058 ± 0.2 kg/m3
same,mass density,"288.15 K, x1 = 0.009993",997.764 ± 0.2 kg/m3
same,mass density,"288.15 K, x1 = 0.01324",997.453 ± 0.2 kg/m3
same,mass density,"293.15 K, x1 = 0.000906",997.98 ± 0.2 kg/m3
same,mass density,"293.15 K, x1 = 0.001283",997.897 ± 0.2 kg/m3
same,mass density,"293.15 K, x1 = 0.001685",997.814 ± 0.2 kg/m3
same,mass density,"293.15 K, x1 = 0.001942",997.774 ± 0.2 kg/m3
same,mass density,"293.15 K, x1 = 0.003834",997.436 ± 0.2 kg/m3
same,mass density,"293.15 K, x1 = 0.006957",996.956 ± 0.2 kg/m3
same,mass density,"293.15 K, x1 = 0.009993",996.553 ± 0.2 kg/m3
same,mass density,"293.15 K, x1 = 0.01324",996.129 ± 0.2 kg/m3
same,mass density,"298.15 K, x1 = 0.000906",996.815 ± 0.2 kg/m3
same,mass density,"298.15 K, x1 = 0.001283",996.726 ± 0.2 kg/m3
same,mass density,"298.15 K, x1 = 0.001685",996.633 ± 0.2 kg/m3
same,mass density,"298.15 K, x1 = 0.001942",996.592 ± 0.2 kg/m3
same,mass density,"298.15 K, x1 = 0.003834",996.204 ± 0.2 kg/m3
same,mass density,"298.15 K, x1 = 0.006957",995.629 ± 0.2 kg/m3
same,mass density,"298.15 K, x1 = 0.009993",995.12 ± 0.2 kg/m3
same,mass density,"298.15 K, x1 = 0.01324",994.56 ± 0.2 kg/m3
same,mass density,"303.15 K, x1 = 0.000906",995.386 ± 0.2 kg/m3
same,mass density,"303.15 K, x1 = 0.001283",995.295 ± 0.2 kg/m3
same,mass density,"303.15 K, x1 = 0.001685",995.201 ± 0.2 kg/m3
same,mass density,"303.15 K, x1 = 0.001942",995.143 ± 0.2 kg/m3
same,mass density,"303.15 K, x1 = 0.003834",994.715 ± 0.2 kg/m3
same,mass density,"303.15 K, x1 = 0.006957",994.053 ± 0.2 kg/m3
same,mass density,"303.15 K, x1 = 0.009993",993.447 ± 0.2 kg/m3
same,mass density,"303.15 K, x1 = 0.01324",992.75 ± 0.2 kg/m3
